Test results taken from patent US11091501B2, “Heterocyclic compounds as RSV inhibitors” (Enanta Pharmaceuticals, Inc., priority 2017, dated 2021).

tested on: Human RSV-A (“Long” strain); experiment: RSV in vitro cytoprotection assay (CPE, ATPlite) in HEp-2 cells; type: cell-based; settings: human respiratory syncytial virus, 96 h; HEp-2 cells, 4-day incubation, ATPlite readout; read-out: Human RSV-A (“Long” strain) EC50
Source text: RSV is a single stranded negative sense RNA virus that causes respiratory tract infections which can be dangerous to infants, the elderly, and immunosuppressed individuals. Currently there is no vaccine, and therapeutic options are both costly and of limited effectiveness. These approved treatments are Ribavirin, and Palivizumab/Synagis (a monoclonal antibody). RSV has two genotypes, A and B, which differ primarily in the structure of the virus' surface “G” attachment protein. Our current primary screen focuses on RSV-A and uses an in vitro cytoprotection assay where compounds are added in 2-fold dilutions to cells which are then subjected to fully replicative viral particles. Cell viability is measured several days later along with separate measurements of compound cytotoxicity. This report focuses on the results of our most recent screening of compounds.
HEp-2 cells, (originally derived from tumors grown in irradiated-cortisonised weanling rats that had been injected with epidermoid carcinoma tissue from a person's larynx, but later found to be indistinguishable from HeLa cells by PCR DNA analysis), were used for the culturing of genotype A, “Long” strain RSV. Flasks were inoculated with RSV and viral stocks were collected once cytopathic effect (CPE) was greater than 90%. Viral stocks in 25% sucrose media were snap frozen using liquid nitrogen to increase viral stability. Viral stock titers were quantified by tissue culture infectious dose 50% (TCID50) using 8,000 cells per well and 3-fold viral dilutions across a 96-well plate, cultured for 4 days.
Following extensive parameter testing, the final assay is run as follows: HEp-2 cells are seeded into the inner 60 wells of a 96-well plate at 8,000 cells per well in a volume of 50 μL using Growth Media (DMEM without phenol red, 1% L-Glut, 1% Penn/Strep, 1% nonessential amino acids, 10% FBS). 2-Fold serial dilutions of control and test compounds are added to the wells in duplicate in a total volume of 25 μL. Viral stock is then added to the wells in a volume of […] the total volume of each well to 100 μL. Each 96-well plate has a control column of 6 wells with cells and virus but no compound (negative control, max CPE), a column with cells but no compound or virus (positive control, minimum CPE), and a column with no cells or virus or compound (background plate/reagent control). The control wells with cells but no virus are given an additional 25 uL of growth media containing an equal quantity of sucrose as those wells receiving the viral stock in order to keep consistent in media and volume conditions. The outer wells of the plate are filled with 125 μL of growth media to act as a thermal and evaporative moat around the test wells. Following a 4-day incubation period, the plates are read using ATPlite (50 uL added per well), which quantifies the amount of ATP (a measure of cell health) present in each well. Assay plates are read using the Envision luminometer. In parallel, cytotoxicity is examined on an additional 96-well plate treated in an identical manner, but substituting the 25 μL of viral stock for 25 μL of growth media. […] EC50 ranges are as follows: A<0.01 μM; B 0.01-0.05 μM; C>0.05 μM.

Row | EC50 [µM] | SMILES
1 | < 0.01 | Cc1cnc(N2CC3(CCOCC3)C2)c(C(=O)Nc2ccc(C(=O)N3CCc4c(sc(C(=O)Nc5c(C)cccc5F)c4F)-c4ccccc43)cc2)c1 [Example 95]
2 | < 0.01 | O=C(Nc1c(F)cccc1F)c1cc2c(o1)-c1ccc(F)cc1N(C(=O)c1ccc(NC(=O)c3cccnc3N3CC4(CCOCC4)C3)cc1)CC2 [Example 99]
3 | < 0.01 | O=C(Nc1c(F)cc(F)cc1F)c1cc2c(o1)-c1ccc(F)cc1N(C(=O)c1ccc(NC(=O)c3cccnc3N3CC4(CCOCC4)C3)cc1)CC2 [Example 100]
4 | < 0.01 | O=C(Nc1c(F)cccc1F)c1nc2c(s1)-c1ccccc1N(C(=O)c1ccc(NC(=O)c3cccnc3N3CC4(CCOCC4)C3)cc1)CC2 [Example 104]
5 | 0.01 to 0.05 | O=C(Nc1c(F)cc(F)cc1F)c1nc2c(s1)-c1ccccc1N(C(=O)c1ccc(NC(=O)c3cccnc3N3CC4(CCOCC4)C3)cc1)CC2 [Example 105]
6 | 0.01 to 0.05 | O=C(Nc1c(F)cc(F)cc1Cl)c1nc2c(s1)-c1ccccc1N(C(=O)c1ccc(NC(=O)c3cccnc3N3CC4(CCOCC4)C3)cc1)CC2 [Example 106]
7 | 0.01 to 0.05 | O=C(Nc1ccc(C(=O)N2CCc3nc(-c4nc5ccccc5[nH]4)sc3-c3ccccc32)cc1)c1cccnc1N1CC2(CCOCC2)C1 [Example 107]
8 | 0.01 to 0.05 | O=C(Nc1c(F)cccc1F)c1nc2c(o1)-c1ccccc1N(C(=O)c1ccc(NC(=O)c3cccnc3N3CC4(CCOCC4)C3)cc1)CC2 [Example 108]
9 | 0.01 to 0.05 | O=C(Nc1ccc(C(=O)N2CCc3nc(-c4nc5ccccc5[nH]4)oc3-c3ccccc32)cc1)c1cccnc1N1CC2(CCOCC2)C1 [Example 109]
10 | < 0.01 | Cc1ccc(C(=O)Nc2ccc(C(=O)N3CCc4cc(C(=O)Nc5c(F)cccc5F)sc4-c4ccc(F)cc43)cc2)c(N2CC3(CCOCC3)C2)n1 [Example 110]
11 | < 0.01 | Cc1ccc(C(=O)Nc2ccc(C(=O)N3CCc4cc(C(=O)Nc5c(F)cc(F)cc5F)sc4-c4ccc(F)cc43)cc2)c(N2CC3(CCOCC3)C2)n1 [Example 111]
12 | < 0.01 | Cc1ccc(C(=O)Nc2ccc(C(=O)N3CCc4cc(C(=O)Nc5c(C)cccc5F)sc4-c4ccc(F)cc43)cc2)c(N2CC3(CCOCC3)C2)n1 [Example 112]
13 | < 0.01 | Cc1ccc(C(=O)Nc2ccc(C(=O)N3CCc4cc(C(=O)Nc5c(F)cccc5C(F)(F)F)sc4-c4ccc(F)cc43)cc2)c(N2CC3(CCOCC3)C2)n1 [Example 113]
14 | < 0.01 | Cc1ccc(C(=O)Nc2ccc(C(=O)N3CCc4cc(C(=O)Nc5ccccc5F)sc4-c4ccc(F)cc43)cc2)c(N2CC3(CCOCC3)C2)n1 [Example 114]
15 | < 0.01 | Cc1ccc(C(=O)Nc2ccc(C(=O)N3CCc4cc(C(=O)Nc5ncccc5F)sc4-c4ccc(F)cc43)cc2)c(N2CC3(CCOCC3)C2)n1 [Example 115]
16 | < 0.01 | Cc1ccc(C(=O)Nc2ccc(C(=O)N3CCc4cc(C(=O)Nc5c(C)cccc5C)sc4-c4ccc(F)cc43)cc2)c(N2CC3(CCOCC3)C2)n1 [Example 116]
17 | < 0.01 | Cc1cnc(N2CC3(CCOCC3)C2)c(C(=O)Nc2ccc(C(=O)N3CCc4cc(C(=O)Nc5c(F)cncc5F)sc4-c4ccc(F)cc43)cc2)c1 [Example 117]
18 | < 0.01 | Cc1cnc(N2CC3(CCOCC3)C2)c(C(=O)Nc2ccc(C(=O)N3CCc4cc(C(=O)Nc5ncccc5F)sc4-c4ccc(F)cc43)cc2)c1 [Example 118]
19 | < 0.01 | Cc1cnc(N2CC3(CCOCC3)C2)c(C(=O)Nc2ccc(C(=O)N3CCc4cc(C(=O)Nc5ncccc5C(F)(F)F)sc4-c4ccc(F)cc43)cc2)c1 [Example 119]
20 | < 0.01 | Cc1cnc(N2CC3(CCOCC3)C2)c(C(=O)Nc2ccc(C(=O)N3CCc4cc(C(=O)Nc5ncccc5Cl)sc4-c4ccc(F)cc43)cc2)c1 [Example 120]

Row | EC50 [µM] | SMILES
21 | < 0.01 | Cc1cnc(N2CC3(CCOCC3)C2)c(C(=O)Nc2ccc(C(=O)N3CCc4cc(C(=O)NC5CC(C)(C)OC(C)(C)C5)sc4-c4ccc(F)cc43)cc2)c1 [Example 121]
22 | > 0.05 | Cc1cnc(N2CC3(CCOCC3)C2)c(C(=O)Nc2ccc(C(=O)N3CCc4cc(C(=O)NC5CCS(=O)(=O)CC5)sc4-c4ccc(F)cc43)cc2)c1 [Example 122]
23 | < 0.01 | Cc1cnc(N2CC3(CCOCC3)C2)c(C(=O)Nc2ccc(C(=O)N3CCc4cc(C(=O)NC5CC6CCC5O6)sc4-c4ccc(F)cc43)cc2)c1 (stereo not shown) [Example 123]
24 | < 0.01 | Cc1cnc(N2CC3(CCOCC3)C2)c(C(=O)Nc2ccc(C(=O)N3CCc4cc(C(=O)N[C@H]5CCOC5)sc4-c4ccc(F)cc43)cc2)c1 [Example 124]
25 | 0.01 to 0.05 | Cc1cnc(N2CC3(CCOCC3)C2)c(C(=O)Nc2ccc(C(=O)N3CCc4cc(C(=O)Nc5ncco5)sc4-c4ccc(F)cc43)cc2)c1 [Example 125]
26 | < 0.01 | Cc1cnc(N2CC3(CCOCC3)C2)c(C(=O)Nc2ccc(C(=O)N3CCc4cc(C(=O)Nc5cccnn5)sc4-c4ccc(F)cc43)cc2)c1 [Example 126]
27 | 0.01 to 0.05 | Cc1cnc(N2CC3(CCOCC3)C2)c(C(=O)Nc2ccc(C(=O)N3CCc4cc(C(=O)Nc5ccnnc5)sc4-c4ccc(F)cc43)cc2)c1 [Example 127]
28 | 0.01 to 0.05 | Cc1cnc(N2CC3(CCOCC3)C2)c(C(=O)Nc2ccc(C(=O)N3CCc4cc(C(=O)Nc5ncns5)sc4-c4ccc(F)cc43)cc2)c1 [Example 128]
29 | > 0.05 | Cc1cnc(N2CC3(CCOCC3)C2)c(C(=O)Nc2ccc(C(=O)N3CCc4cc(C(=O)NC5CCNC5)sc4-c4ccc(F)cc43)cc2)c1 (stereo not shown) [Example 129]
30 | < 0.01 | Cc1cnc(N2CC3(CCOCC3)C2)c(C(=O)Nc2ccc(C(=O)N3CCc4cc(C(=O)NC5CCOCC5)sc4-c4ccc(F)cc43)cc2)c1 [Example 130]
31 | < 0.01 | Cc1cnc(N2CC3(CCOCC3)C2)c(C(=O)Nc2ccc(C(=O)N3CCc4cc(C(=O)Nc5c(Cl)cncc5Cl)sc4-c4ccc(F)cc43)cc2)c1 [Example 131]
32 | < 0.01 | Cc1cnc(N2CC3(CCOCC3)C2)c(C(=O)Nc2ccc(C(=O)N3CCc4cc(C(=O)Nc5nccs5)sc4-c4ccc(F)cc43)cc2)c1 [Example 132]
33 | 0.01 to 0.05 | Cc1cnc(N2CC3(CCOCC3)C2)c(C(=O)Nc2ccc(C(=O)N3CCc4cc(C(=O)Nc5nnc(C)s5)sc4-c4ccc(F)cc43)cc2)c1 [Example 133]
34 | < 0.01 | Cc1cnc(N2CC3(CCOCC3)C2)c(C(=O)Nc2ccc(C(=O)N3CCc4cc(C(=O)Nc5ncc(C)o5)sc4-c4ccc(F)cc43)cc2)c1 [Example 134]
35 | < 0.01 | Cc1cnc(N2CC3(CCOCC3)C2)c(C(=O)Nc2ccc(C(=O)N3CCc4cc(C(=O)Nc5nc(C)co5)sc4-c4ccc(F)cc43)cc2)c1 [Example 135]
36 | 0.01 to 0.05 | Cc1cc(C(=O)Nc2ccc(C(=O)N3CCc4cc(C(=O)Nc5c(F)cc(F)cc5Cl)sc4-c4ccc(F)cc43)cc2)c(N2CC3(CCOCC3)C2)nn1 [Example 136]
37 | < 0.01 | O=C(Nc1c(F)cccc1Cl)c1cc2c(s1)-c1ccc(F)cc1N(C(=O)c1ccc(NC(=O)c3cc4c(nc3N3CC5(CCOCC5)C3)CCOC4)cc1)CC2 [Example 137]
38 | < 0.01 | O=C(Nc1ncccc1C(F)(F)F)c1cc2c(s1)-c1ccc(F)cc1N(C(=O)c1ccc(NC(=O)c3cc4c(nc3N3CC5(CCOCC5)C3)CCC4)cc1)CC2 [Example 139]
39 | < 0.01 | O=C(Nc1ncccc1Cl)c1cc2c(s1)-c1ccc(F)cc1N(C(=O)c1ccc(NC(=O)c3cc4c(nc3N3CC5(CCOCC5)C3)CCC4)cc1)CC2 [Example 140]
40 | < 0.01 | Cc1cnc(N2CC3(CCOCC3)C2)c(C(=O)Nc2ccc(C(=O)N3CCc4cc(-c5nnco5)sc4-c4ccc(F)cc43)cc2)c1 [Example 141]
